Experimental data as given in patent US6861429B2, “2,3-diaryl-pyrazolo[1,5-b]pyridazines derivatives, their preparation and their use as cyclooxygenase 2 (COX-2) inhibitors” (SmithKline Beecham Corporation, priority 1997, dated 2005).

Experiments:
human COX-1 = molecular target: T1, human COX-1 (Homo sapiens, UniProt P23219); assay: Inhibition of PGE2 release in COS cells stably transfected with human COX-1; type: cell-based; conditions: 30 μM arachidonic acid, PGE2 release by enzyme immunoassay
T1 construct: expressed in transfected cells
T1 sequence (P23219 24-599): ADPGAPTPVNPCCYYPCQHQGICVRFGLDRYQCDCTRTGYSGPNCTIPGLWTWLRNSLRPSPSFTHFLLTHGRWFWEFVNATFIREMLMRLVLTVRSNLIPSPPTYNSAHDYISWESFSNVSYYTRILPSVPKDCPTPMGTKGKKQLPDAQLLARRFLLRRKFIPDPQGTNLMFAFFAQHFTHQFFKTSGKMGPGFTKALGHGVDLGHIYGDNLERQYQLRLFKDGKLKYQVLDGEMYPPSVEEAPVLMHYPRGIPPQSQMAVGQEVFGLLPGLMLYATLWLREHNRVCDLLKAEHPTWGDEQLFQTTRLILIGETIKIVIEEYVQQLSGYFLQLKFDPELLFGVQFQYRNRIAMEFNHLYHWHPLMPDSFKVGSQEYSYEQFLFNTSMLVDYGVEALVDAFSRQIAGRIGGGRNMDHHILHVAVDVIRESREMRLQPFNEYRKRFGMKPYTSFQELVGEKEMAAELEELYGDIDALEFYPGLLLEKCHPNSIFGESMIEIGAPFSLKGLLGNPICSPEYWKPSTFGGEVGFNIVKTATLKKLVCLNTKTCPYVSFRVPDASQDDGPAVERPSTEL
Experimental: (§1) Inhibitory activity against human COX-1and COX-2was assessed in COS cells which had been stably transfected with cDNA for human COX-1and human COX-2. 24Hours prior to experiment, COS cells were transferred from the 175 cm^2flasks in which they were grown, onto 24-well cell culture plates using the following procedure. The incubation medium (Dulbecco's modified eagles medium (DMEM) supplemented with heat-inactivated foetal calf serum (10% v/v), penicillin (100 IU/ml), streptomycin (100 μg/ml) and geneticin (600 μg/ml)) was removed from a flask of confluent cells (1flask at confluency contains approximately 1×10^7 cells). 10 ml of phosphate buffered saline (PBS) was added to the flask to wash the cells. Having discarded the PBS, cells were then rinsed in 10 ml trypsin for 20 seconds, after which the trypsin was removed and the flask placed in an incubator (37°) for 1-2 minutes until cells became detached from the flask. The flask was then removed from the incubator and cells resuspended in 10 ml of fresh incubation medium. The contents of the flask was transferred to a 250 ml sterile container and the volume of incubation medium subsequently made up to 100 ml. […] If more than 1 flask of cells were required, the cells from the individual flasks were combined before being dispensed into the 24-well plates.
(§2) Following the overnight incubation, the incubation medium was completely removed from the 24-well cell culture plates and replaced with 250 μl fresh DMEM (37° C.). The test compounds were made up to 250× the required test concentration in DMSO and were added to the wells in a volume of 1 μl. […] Plates were then incubated for a further 15 minutes, after which the incubation medium was removed from each well of the plates and stored at −20° C., prior to determination of prostaglandin E2(PGE2) levels using enzyme immunoassay. […] The selectivity ratio of inhibition of COX-1 versus COX-2 was calculated by comparing respective IC50 values.

human COX-2 = molecular target: T2, human COX-2 (Homo sapiens, UniProt P35354); assay: Inhibition of PGE2 release in COS cells stably transfected with human COX-2; type: cell-based; conditions: 30 μM arachidonic acid, PGE2 release by enzyme immunoassay
T2 construct: expressed in transfected cells
T2 sequence (P35354 18-604): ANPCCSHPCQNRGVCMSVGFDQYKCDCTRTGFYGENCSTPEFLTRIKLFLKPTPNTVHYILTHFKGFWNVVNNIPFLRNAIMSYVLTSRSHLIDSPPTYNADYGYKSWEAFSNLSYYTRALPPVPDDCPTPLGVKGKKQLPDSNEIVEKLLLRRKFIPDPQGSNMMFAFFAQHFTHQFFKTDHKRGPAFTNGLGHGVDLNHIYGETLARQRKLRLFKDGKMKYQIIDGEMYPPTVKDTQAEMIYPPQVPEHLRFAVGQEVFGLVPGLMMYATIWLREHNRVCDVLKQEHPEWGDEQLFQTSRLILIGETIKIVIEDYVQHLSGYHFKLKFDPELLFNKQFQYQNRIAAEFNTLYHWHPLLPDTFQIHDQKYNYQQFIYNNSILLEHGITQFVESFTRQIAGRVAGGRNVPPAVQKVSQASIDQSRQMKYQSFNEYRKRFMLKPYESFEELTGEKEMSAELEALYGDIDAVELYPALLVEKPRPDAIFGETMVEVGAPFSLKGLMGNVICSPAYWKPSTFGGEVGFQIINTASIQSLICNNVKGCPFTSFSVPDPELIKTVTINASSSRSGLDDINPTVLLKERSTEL
Experimental: as §1, §2

IC50 (human COX-1) [nM] | IC50 (human COX-2) [nM] | SMILES
> 55200 | 16 | CS(=O)(=O)c1ccc(-c2c(-c3cccc(F)c3)nn3nc(OC(F)F)ccc23)cc1 [7(viii), 6-Difluoromethoxy-2-(3-fluoro-phenyl)-3-(4-methanesulfonyl-phenyl)-pyrazolo[1,5-b]pyridazine]
> 100000 | 21 | CS(=O)(=O)c1ccc(-c2c(-c3ccc(OC(F)F)cc3)nn3ncccc23)cc1 [Example 5, 2-(4-Difluoromethoxy-phenyl)-3-(4-methanesulfonyl-phenyl)-pyrazolo[1,5-b]pyridazine]
> 100000 | 35 | CS(=O)(=O)c1ccc(-c2c(-c3ccc(F)cc3)nn3nc(OC(F)F)ccc23)cc1 [1(v), 6-Difluoromethoxy-2-(4-fluoro-phenyl)-3-(4-methanesulfonyl-phenyl)-pyrazolo[1,5-b]pyridazine]
– | < 10 | COc1ccc(-c2nn3ncccc3c2-c2ccc(S(C)(=O)=O)cc2)cc1 [2(ii), 3-(4-Methanesulfonyl-phenyl)-2-(4-methoxy-phenyl)-pyrazolo[1,5-b]pyridazine]
> 100000 | – | CCOc1ccc(-c2nn3ncccc3c2-c2ccc(S(C)(=O)=O)cc2)cc1 [3(ii), 2-(4-Ethoxy-phenyl)-3-(4-methanesulfonyl-phenyl)-pyrazolo[1,5-b]pyridazine]
